The values that follow come from ChEMBL document CHEMBL1770146, “Structure-activity relationship studies of novel 3-oxazolidinedione-6-naphthyl-2-pyridinones as potent and orally bioavailable EP3 receptor antagonists” (Bioorg Med Chem Lett, 2011).

Data set [1] has as its target T1, Prostaglandin E2 receptor EP3 subtype (Homo sapiens, UniProt P43115).
T1 sequence (P43115 whole entry): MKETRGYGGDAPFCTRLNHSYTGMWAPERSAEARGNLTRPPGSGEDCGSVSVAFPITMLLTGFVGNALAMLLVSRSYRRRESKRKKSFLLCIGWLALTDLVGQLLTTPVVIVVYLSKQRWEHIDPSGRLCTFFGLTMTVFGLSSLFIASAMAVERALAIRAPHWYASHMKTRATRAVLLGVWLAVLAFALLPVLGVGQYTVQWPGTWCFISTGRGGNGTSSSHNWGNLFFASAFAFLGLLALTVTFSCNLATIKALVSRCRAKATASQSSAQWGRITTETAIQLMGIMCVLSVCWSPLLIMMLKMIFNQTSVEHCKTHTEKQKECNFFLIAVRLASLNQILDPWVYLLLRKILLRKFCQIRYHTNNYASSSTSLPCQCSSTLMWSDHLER
Kind of data set: Antagonist activity at human EP3 receptor expressed in CHO cells assessed as inhibition of PGE2-induced increase in intracellular calcium concentration after 1 hr by FLIPR assay. The format is functional, cell-based. Background: Calcium assays in cells follow changes in intracellular calcium, usually with a dye or a luminescent sensor.

Data set [2] in a line: Half life in Sprague-Dawley rat at 1 mg/kg, iv and 2 mg/kg, po. The note with it: in vivo. The class given is ADME, organism-based.
Data set [3] in a line: Clearance in Sprague-Dawley rat at 1 mg/kg, iv and 2 mg/kg, po. The format is ADME, organism-based. As to conditions: in vivo.
Data set [4] relates to Rattus norvegicus. Put plainly: Dose normalized AUC in Sprague-Dawley rat at 2 mg/kg, po. The format is ADME, organism-based. Details: dose 2 mg/kg, route oral. The note with it: in vivo.
The nature of data set [5]: Oral bioavailability in Sprague-Dawley rat at 2 mg/kg. The class given is ADME, organism-based. The note with it: in vivo.
The species named for data set [6] is Canis lupus familiaris. Kind of data set: Antagonist activity at dog EP3 receptor. The format is functional.
For data set [7], the target named is T2, Prostaglandin E2 receptor EP3 subtype (Rattus norvegicus) (UniProt P34980).
T2 sequence (whole entry): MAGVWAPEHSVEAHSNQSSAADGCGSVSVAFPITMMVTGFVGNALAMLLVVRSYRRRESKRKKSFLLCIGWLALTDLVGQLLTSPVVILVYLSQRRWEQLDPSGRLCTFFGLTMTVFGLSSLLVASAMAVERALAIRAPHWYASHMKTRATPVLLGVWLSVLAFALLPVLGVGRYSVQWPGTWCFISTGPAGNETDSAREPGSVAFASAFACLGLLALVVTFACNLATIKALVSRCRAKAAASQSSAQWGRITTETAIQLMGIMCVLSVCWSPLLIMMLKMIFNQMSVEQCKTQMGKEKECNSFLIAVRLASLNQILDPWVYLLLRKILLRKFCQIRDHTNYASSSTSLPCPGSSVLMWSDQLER
Kind of data set: Antagonist activity at rat EP3 receptor. The format is functional.

Calls of active or inactive are those of the source. The calls are words filed in the database; no cut-off is given here. Some results are limits rather than exact numbers.

A word on the Ki: it is a dissociation constant, usually derived from enzyme kinetics or from competition with a known ligand. In the case of `CC(C)N1C(=O)OC(C)(c2ccc(-c3ccc4ccccc4c3)[nH]c2=O)C1=O` (centres undefined), in data set [1], the Ki is 1580 nM.
As to `CC1(c2ccc(-c3ccc4ccccc4c3)[nH]c2=O)CNC(=O)N1` (centres undefined), in data set [1], the Ki is 39.8 nM.
`CC1(c2ccc(-c3ccc4ccccc4c3)[nH]c2=O)NC(=O)NC1=O` (centres undefined): the Ki in data set [1] is 316 nM.
As to `CC1(c2ccc(-c3ccc4ccccc4c3)cc2O)OC(=O)NC1=O` (centres undefined), the Ki in data set [1] was 1260 nM.
The term half-life denotes the time in which the quantity being followed falls by half. Low values mean fast loss, high ones slow loss. The AUC is the area under the concentration-time curve, a measure of exposure. The bioavailability is the share of a dose that reaches the circulation, judged against a reference dose that is usually intravenous. Low values mean little systemic uptake, high ones much systemic uptake. In the case of `Cc1cc(C2(C(C)C)OC(=O)NC2=O)c(=O)[nH]c1-c1ccc2ccccc2c1` (centres undefined), in data set [1], the Ki is 6.31 nM. Further, the half-life in data set [2] was 6.6 h. In data set [3], this compound gave a clearance of 1.4 mL/min/kg. This compound also had an AUC in data set [4] of 13500 ng·h/mL. For the same compound, in data set [5], the bioavailability is 100%.
Consider `O=C1NC(=O)C(c2ccc(-c3ccc4ccccc4c3)[nH]c2=O)(C2CC2)O1` (centres undefined), for which the Ki in data set [1] was 50.1 nM.
For `O=C1NC(=O)C(c2ccc(-c3ccc4ccccc4c3)[nH]c2=O)(C2CCOCC2)O1` (centres undefined), the Ki in data set [1] was 200 nM.
With `CC(C)[C@@]1(c2ccc(-c3ccc4ccccc4c3)[nH]c2=O)OC(=O)NC1=O`, the inhibitory constant (Ki) in data set [1] is 7.94 nM.
As to `CC(C)C1(c2ccc(-c3ccc4ccccc4c3)[nH]c2=O)OC(=O)NC1=O` (centres undefined), the outcome in data set [6] and in data set [7] was Active.
On to `CC1(c2ccc(-c3ccc4ccccc4c3)[nH]c2=O)OC(=O)NC1=O` (centres undefined), for which the Ki in data set [1] is 20 nM.
Turning to `O=C1NC(=O)C(c2ccccc2)(c2ccc(-c3ccc4ccccc4c3)[nH]c2=O)O1` (centres undefined), the Ki in data set [1] is 31.6 nM.
Still for that read-out and setting: the value for `O=C1NC(=O)C(c2ccc(-c3ccc4ccccc4c3)[nH]c2=O)(C2CCCCC2)O1` (centres undefined) was 7.94 nM; that for `CC(C)C1(c2c[nH]c(-c3ccc4ccccc4c3)cc2=O)OC(=O)NC1=O` (centres undefined) was 794 nM; that for `Cn1c(-c2ccc3ccccc3c2)ccc(C2(C)OC(=O)NC2=O)c1=O` (centres undefined) was above 25100 nM.
In the case of `CC(C)[C@]1(c2ccc(-c3ccc4ccccc4c3)[nH]c2=O)OC(=O)NC1=O`, the Ki in data set [1] was 20 nM.
Consider `COc1cc(-c2ccc3ccccc3c2)ccc1C1(C)OC(=O)NC1=O` (centres undefined), for which the inhibition constant (Ki) in data set [1] is 3160 nM.
The same measure, in the same setting: the value for `CN1C(=O)OC(C)(c2ccc(-c3ccc4ccccc4c3)[nH]c2=O)C1=O` (centres undefined) was 501 nM.
As to `CC(C)C1(c2ccc(-c3ccc4ccccc4c3)nc2)OC(=O)NC1=O` (centres undefined), the Ki in data set [1] was above 25100 nM.
Still for that read-out and setting: the value for `CC(C)C1(c2cc(Br)c(-c3ccc4ccccc4c3)[nH]c2=O)OC(=O)NC1=O` (centres undefined) was 39.8 nM.
`CC(C)C1(c2ccc(-c3ccc4ccccc4c3)[nH]c2=O)OC(O)=NC1=O` (centres undefined) had a half-life in data set [2] of 3.5 h. The compound further displayed a clearance in data set [3] of 5.1 mL/min/kg. The compound further registered an AUC in data set [4] of 4400 ng·h/mL. For the same compound, in data set [5], the bioavailability worked out at 100%.
Turning to `O=C1NC(=O)C(c2ccc(-c3ccc4ccccc4c3)[nH]c2=O)(C2CCCC2)O1` (centres undefined), in data set [1], the Ki is 7.94 nM.
Regarding `CC(C)C1(c2cc(-c3ccccc3)c(-c3ccc4ccccc4c3)[nH]c2=O)OC(=O)NC1=O` (centres undefined), the Ki in data set [1] is 2510 nM.
Consider `CC(C)C1(c2cc(C(F)(F)F)c(-c3ccc4ccccc4c3)[nH]c2=O)OC(=O)NC1=O` (centres undefined), for which, in data set [1], the Ki was 631 nM.
Same read-out and setting: next, `O=C1NC(=O)C(c2ccc(-c3ccc4ccccc4c3)[nH]c2=O)(C(F)(F)F)O1` (centres undefined): 126 nM; `CC1(c2ccc(-c3ccc4ccccc4c3)[nH]c2=O)CNC(=O)O1` (centres undefined): 79.4 nM.
Still for that read-out and setting: next, `O=C1NC(=O)C(Cc2ccccc2)(c2ccc(-c3ccc4ccccc4c3)[nH]c2=O)O1` (centres undefined): 15.8 nM.
Take `CC(C)C1(c2cc(Cl)c(-c3ccc4ccccc4c3)[nH]c2=O)OC(=O)NC1=O` (centres undefined): in data set [1], the Ki is 50.1 nM. Further, the half-life in data set [2] is 5.3 h. For the same compound, in data set [3], the clearance came out at 1.2 mL/min/kg. In data set [4], the AUC was 12900 ng·h/mL. In data set [5], the bioavailability is 86%.
